Source: US8790719B2, “Phytocannabinoids in the treatment of cancer” (GW Pharma Limited, priority 2010, dated 2014)
pEC50, pIC50: −log10 of the molar value. Read-outs that look alike come from different tables or passages of the source.

What was measured:
[1] = test system: hormone-sensitive prostate cancer cell line (LNCaP); assay: Subcutaneous xenograft model, hormone-sensitive prostate cancer (LNCaP); assay type: in vivo, mice; conditions: taxotere 5 mg/kg i.v. weekly, alone
Experimental: Cancer cells were maintained in vitro in an appropriate culture medium and were harvested, washed in culture medium and re-suspended in matrigel for ready for in vivo administration. 1-2×10^7 cells in 200 μl were injected subcutaneously into the left flank of mice. The mice were anaesthetised and a 0.5 mg 5-alpha-dihydrotestosterone pellet (21-day release) implanted subcutaneously into the scruff of each mouse to encourage tumour growth, and the wound was closed.
Once the implanted tumour volume reached between 100-200 mm (2-3 weeks) mice were allocated to their treatment groups. Treatment commenced on Day 17. The phytocannabinoid BDS was administered i.p. once daily at doses of 1, 10 & 100 mg/kg cannabinoid BDS for a further 25 days.
In a further experiment the chemotherapeutic agent taxotere (5 mg/kg) i.v. was administered weekly, alone or in combination with 100 mg/kg phytocannabinoid BDS.
Mice were evaluated daily by an experienced technician for 4-5 weeks. Tumour dimensions were recorded at day 7 (calliper measurement of length and width and tumour cross-sectional area and volume calculated) and recorded three times weekly and body weight measured weekly.

[2] = test system: U87 glioma cells; assay: Viability of U87 glioma cells (MTT assay), THC, CBD, TMZ alone and combined; assay type: cell-based, human; conditions: TMZ 100 μM alone, Table 12.2
[3] = test system: human glioma xenograft tumours; assay: Human glioma xenograft tumour volume; assay type: in vivo; set-up: unit not given here; conditions: TMZ (100 μM) alone; Table 13.2
Experimental: The phytocannabinoids were also tested with the TMZ as is detailed in Table 13.2 below.

[4] = test system: Glioma cells; assay: Human glioma cell vitality (MTT assay); assay type: cell-based; conditions: read-out: IC50 on glioma cell vitality
Experimental: Cells were seeded in presence of FBS in 6 wells multiwell with a density of 8×10^4 cells/well. Glioma cells were treated with increased concentrations of compounds and cell viability was assessed by MTT staining.
CBD BDS and isolated CBD, CBG and CBDV were tested.

[5] = test system: LNCaP; assay: Cell vitality (MTT assay), LNCaP; assay type: cell-based; conditions: Homo sapiens, read-out: IC50 on cell vitality
Experimental: (§1) Cells were seeded in presence of FBS in 6 wells multiwell with a density of 8×10^4 cells/well (DU-145) or 1×10^5 cells/well (LNCaP). After 7 hours, cells were starved of dihydrotestosterone (DHT) for 15 hours and treated with increased concentrations of compounds for 24 or 48 hours (absence of serum was maintained during the treatments). Cell viability was assessed by MTT staining.
(§2) Phytocannabinoid BDS and their respective isolated phytocannabinoids were tested in both the hormone-insensitive (DU-145) prostate cancer cells and hormone-sensitive (LNCaP) prostate cancer cells. Three different phytocannabinoids were chosen for this experiment: CBG BDS and isolated compound, CBC BDS and isolated compound and CBD BDS and isolated compound.
(§3) The experiment was repeated in the hormone-insensitive (DU-145) prostate cancer cells and hormone-sensitive (LNCaP) prostate cancer cells that had not been starved of DHT. Here just the CBG BDS and isolated CBG are illustrated in Table 7.2 below.

[6] = target: T1, monoacylglyceride lipase (MAGL) (Homo sapiens, UniProt Q99685); assay: Inhibition of monoacylglyceride lipase (MAGL); assay type: biochemical
T1 sequence (Q99685 1-303): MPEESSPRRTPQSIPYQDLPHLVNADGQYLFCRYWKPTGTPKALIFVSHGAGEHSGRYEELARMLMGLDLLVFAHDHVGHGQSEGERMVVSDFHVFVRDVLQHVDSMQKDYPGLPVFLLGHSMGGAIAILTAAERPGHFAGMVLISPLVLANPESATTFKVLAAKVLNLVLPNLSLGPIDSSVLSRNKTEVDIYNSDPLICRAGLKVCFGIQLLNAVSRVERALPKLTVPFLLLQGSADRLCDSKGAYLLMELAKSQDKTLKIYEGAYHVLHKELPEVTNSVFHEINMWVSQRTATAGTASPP
Experimental: (§4) The effects of the phytocannabinoid BDS THCA, CBN, CBGA, CBDA and CBCV were tested to determine whether they were able to inhibit the MAGL and DAGL enzymes which are able to hydrolyse the endogenous cannabinoid 2-AG to arachidonic acid and glycerol. The results generated from these experiments are detailed in Table 5.1 below.
For this experiment CBG BDS was used as this BDS was the easiest to purify and reconstitute. Four different test articles were used: CBG BDS, isolated CBG, CBG-free CBG BDS and CBG reconstituted BDS, whereby the CBG-free BDS (as prepared in Example 1) was spiked with isolated CBG at the same concentration of CBG as CBG BDS. Table 5.2 below details the data obtained.

[7] = test system: DU-145; assay: Cell vitality (MTT assay), DU-145; assay type: cell-based; conditions: Homo sapiens
Experimental: as §1, §2, §3

[8] = test system: Aberrant crypt focus (ACF), polyps and tumours; assay: Colon carcinogenesis in the mouse induced by azoxymethane; assay type: in vivo
Description: Aberrant crypt focus (ACF), polyps and tumours were induced in the mouse by the carcinogenic substance azoxymethane. The phytocannabinoids were given (i.p.) to the mice three times per week for a period of three months. The COX-2 inhibitor celecoxib was used as a positive control.

[9] = test system: hormone sensitive LNCaP cells; conditions: 24-48 hours; cited from earlier work
[10] = target: T2, GPR55 (Homo sapiens, UniProt Q9Y2T6); assay: ERK Alphascreen assay using GPR55-HEK cells; assay type: cell-based
T2 construct: expressed in transfected cells; host or cells: HEK cells (GPR55-HEK)
Description: An ERK Alphascreen assay was undertaken using GPR55-HEK cells.

[11] = target: T3, diacylglyceride lipase (DAGL) (Homo sapiens, UniProt Q9Y4D2); assay: Inhibition of diacylglyceride lipase (DAGL); assay type: biochemical
T3 sequence (Q9Y4D2 1-1042): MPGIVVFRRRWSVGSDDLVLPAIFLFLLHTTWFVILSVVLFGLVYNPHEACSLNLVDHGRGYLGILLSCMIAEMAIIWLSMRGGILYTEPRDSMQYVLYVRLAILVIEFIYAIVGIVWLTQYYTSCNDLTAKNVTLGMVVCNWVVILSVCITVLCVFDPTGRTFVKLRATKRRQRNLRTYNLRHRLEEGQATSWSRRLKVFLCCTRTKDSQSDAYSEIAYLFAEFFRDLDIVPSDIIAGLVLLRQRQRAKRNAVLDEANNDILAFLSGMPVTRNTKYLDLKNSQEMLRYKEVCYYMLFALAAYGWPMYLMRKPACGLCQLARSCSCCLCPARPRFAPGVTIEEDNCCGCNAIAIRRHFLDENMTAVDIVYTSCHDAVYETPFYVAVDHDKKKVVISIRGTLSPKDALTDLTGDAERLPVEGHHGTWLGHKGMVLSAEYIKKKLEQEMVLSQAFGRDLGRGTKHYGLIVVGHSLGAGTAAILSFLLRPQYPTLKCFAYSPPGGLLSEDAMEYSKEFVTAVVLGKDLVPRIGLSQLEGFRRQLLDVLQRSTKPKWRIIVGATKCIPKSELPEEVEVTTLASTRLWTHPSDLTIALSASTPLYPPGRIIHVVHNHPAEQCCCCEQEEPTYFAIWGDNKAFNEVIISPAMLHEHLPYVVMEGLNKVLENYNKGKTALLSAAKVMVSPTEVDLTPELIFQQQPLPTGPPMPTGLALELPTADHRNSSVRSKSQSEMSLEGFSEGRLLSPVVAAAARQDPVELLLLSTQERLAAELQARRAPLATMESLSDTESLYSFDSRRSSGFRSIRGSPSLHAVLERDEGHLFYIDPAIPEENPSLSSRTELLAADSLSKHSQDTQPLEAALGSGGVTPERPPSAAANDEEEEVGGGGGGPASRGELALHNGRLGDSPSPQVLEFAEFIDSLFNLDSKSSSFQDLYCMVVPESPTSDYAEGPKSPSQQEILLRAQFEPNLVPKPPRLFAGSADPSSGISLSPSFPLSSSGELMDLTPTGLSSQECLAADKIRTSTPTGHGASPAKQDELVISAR
Experimental: as §4

[12] = test system: MDA-MB-231 breast cancer cell line; assay: Cell viability of breast cancer cells (Alamar blue assay); assay type: cell-based; conditions: 72 hours
Experimental: Cells were seeded in presence of FBS in 6 wells multiwell and treated with increased concentrations of compounds for 72 hours. Cell viability was assessed by Alamar blue staining.
Isolated phytocannabinoids were tested on the MDA-MB-231 breast cancer cell line in order to determine whether phytocannabinoids were effective in other types of cancer other than prostate cancer. The different isolated phytocannabinoids chosen for this experiment were: CBGA, CBDA, CBDV, CBD, THCV and THC.

[13] = test system: hormone-insensitive prostate cancer cell line (DU-145); assay: Chemioluminescence assay for caspase 3/7 release (apoptosis), DU-145; assay type: cell-based, human; conditions: high dose (25 μM), FIG. 2
Experimental: (§5) Two different concentrations of cannabinoids were tested; a low dose (10 μM) and a high dose (25 μM). The chemioluminescence that were recorded for each phytocannabinoid are detailed in FIG. 2.

[14] = test system: hormone-sensitive prostate cancer cell line (LNCaP); assay: Chemioluminescence assay for caspase 3/7 release (apoptosis), LNCaP; assay type: cell-based, human; conditions: high dose (25 μM), FIG. 2
Experimental: as §5

[15] = DU-145, 24 h, read-out: IC50 on cell vitality
[16] = DU-145, 48 h, read-out: IC50 on cell vitality
[17] = at 50 μM, read-out: Max concentration tested (% inhibition), MAGL
[18] = read-out: Max concentration tested (% inhibition), DAGL

T2 sequence (Q9Y2T6 whole entry, species assumed): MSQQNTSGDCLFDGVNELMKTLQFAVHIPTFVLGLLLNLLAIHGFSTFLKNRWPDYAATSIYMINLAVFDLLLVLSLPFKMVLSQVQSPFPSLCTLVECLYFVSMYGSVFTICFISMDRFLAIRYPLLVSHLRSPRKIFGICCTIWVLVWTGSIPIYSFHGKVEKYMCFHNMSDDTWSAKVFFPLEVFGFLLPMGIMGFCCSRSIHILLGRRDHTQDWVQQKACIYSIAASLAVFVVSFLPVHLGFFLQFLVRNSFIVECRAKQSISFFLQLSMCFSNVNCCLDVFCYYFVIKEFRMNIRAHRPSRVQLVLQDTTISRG

## CC(=O)O[C@@]12CO[C@@H]1C[C@H](O)[C@@]1(C)C(=O)[C@H](O)C3=C(C)[C@@H](OC(=O)[C@H](O)[C@@H](NC(=O)OC(C)(C)C)c4ccccc4)C[C@@](O)([C@@H](OC(=O)c4ccccc4)[C@H]21)C3(C)C [taxotere]
[1]
  growth rate and terminal tumour volume: significantly inhibited both growth rate and terminal tumour volume

## Cn1nnc2c(C(N)=O)ncn2c1=O [TMZ, temazolamide, reference compound]
[2]
  Cell Viability (%): 82%
[3]
  Tumour volume (increase from day 1): 4.1

## CCCCCc1cc(O)c(C/C=C(\C)CCC=C(C)C)c(O)c1 [CBG, Cannabigerol]
[4]
  pIC50: 4.91
[5]; 24 h
  pIC50: 4.97
[5]; 48 h
  pIC50: 5.09
[5]
  pIC50: < 4.60
[6]; Table 5.2, BDS vs isolated vs reconstituted
  pEC50: 3.71
[6]; Table 5.2, read-out: Max tested on MAGL % inhibition
  inhibition at 100 µM: 31.5%
[7]; [15]
  pIC50: 4.93
[7]; [16]
  pIC50: 5.24
[7]; DU-145, read-out: IC50 on cell vitality
  pIC50: < 4.60
[8]; FIG. 6 a)
  protective effect against the experimentally induced colon carcinogenesis: most statistically significant results
[8]; FIG. 6 b)
  formation of ACF with 4 or more crypts: no ACF with greater than 4 crypts
[8]; i.p. three times per week for three months; FIG. 5 c), FIG. 6 c)
  numbers of tumours per animal: no tumours were produced

## Cc1c(C(=O)c2cccc3ccccc23)c2cccc3c2n1[C@H](CN1CCOCC1)CO3 [WIN-55,212-2]
[9]
  inhibition of cell growth: inhibition of cell growth

## CCCCCc1cc(O)c2c(c1)OC(C)(CCC=C(C)C)C=C2 (stereo not shown) [CBC, Cannabichromene]
[5]; 24 h
  pIC50: 4.97
[5]; 48 h
  pIC50: 5.22
[7]; [15]
  pIC50: 5.12
[7]; [16]
  pIC50: 5.25

## C=C(C)[C@@H]1CCC(C)=C[C@H]1c1c(O)cc(CCCCC)c(C(=O)O)c1O [CBDA, Cannabidiolic acid]
[10]
  Effect at GPR55: Antagonist
[6]; Table 5.1, read-out: MAG IC50
  pIC50: < 4.30
[6]; [17]
  inhibition at 50 µM: 18.5%
[11]; at 100 μM, read-out: Max concentration tested (% inhibition), DAGL
  inhibition at 100 µM: 91.4%
[12]; Homo sapiens
  pIC50: 5.41

## CCCCCc1cc(O)c(C/C=C(\C)CCC=C(C)C)c(O)c1C(=O)O [CBGA]
[10]
  Effect at GPR55: Inverse agonist
[6]; Table 5.1, read-out: MAG IC50
  pIC50: < 4.30
[6]; at 50 μM
  Max concentration tested (% inhibition), MAGL: (17.2%)
[11]; Table 5.1
  pIC50: 4.52
[11]; at 100 μM
  Max concentration tested (% inhibition), DAGL: (67.5%)
[12]
  pIC50: 5.66

## CCCc1cc(O)c(C/C=C(\C)CCC=C(C)C)c(O)c1 [CBGV, Cannabigerol propyl variant]
[10]
  Effect at GPR55: Antagonist

## CCCc1cc(O)c2c(c1)OC(C)(CCC=C(C)C)C=C2 (stereo not shown) [CBCV]
[6]; Table 5.1, read-out: MAG IC50
  pIC50: < 4.30
[6]; [17]
  inhibition at 50 µM: 4.8%
[11]; [18]
  inhibition at 50 µM: 18.9%

## CCCc1cc(O)c2c(c1)OC(C)(C)[C@@H]1CCC(C)=C[C@@H]21 [THCV, Tetrahydrocannabivarin]
[10]
  Effect at GPR55: Antagonist (at low concentrations)
[12]; Homo sapiens
  pIC50: 5.19
[13]
  pro-apoptotic effect (chemioluminescence, caspase 3/7 release): apotosis levels over that of the control

## C=C(C)[C@@H]1CCC(C)=C[C@H]1c1c(O)cc(CCC)cc1O [CBDV, Cannabidivarin]
[10]
  Effect at GPR55: Antagonist
[4]
  pIC50: 4.91
[12]; Homo sapiens
  pIC50: 5.30

## CCCCCc1cc2c(c(O)c1C(=O)O)[C@@H]1C=C(C)CC[C@H]1C(C)(C)O2 [THCA, Tetrahydrocannabinolic acid]
[6]
  pIC50: 4.34
[6]; read-out: Max concentration tested (% inhibition), MAGL
  inhibition at 100 µM: 81.9%
[11]; [18]
  inhibition at 50 µM: 79.3%

## CCCc1cc2c(c(O)c1C(=O)O)[C@@H]1C=C(C)CC[C@H]1C(C)(C)O2 [THCVA, Tetrahydrocannabivarinic acid]
[14]
  pro-apoptotic effect (chemioluminescence, caspase 3/7 release): highest pro-apoptotic effect
[13]
  pro-apoptotic effect (chemioluminescence, caspase 3/7 release): highest pro-apoptotic effects

## CCCCCc1cc(O)c2c(c1)OC(C)(C)c1ccc(C)cc1-2 [CBN, Cannabinol]
[6]
  pIC50: < 4.30
[6]; [17]
  inhibition at 50 µM: 31.5%
[11]; [18]
  inhibition at 50 µM: 26.9%
